Results published in patent US20250170111A1, “PYRIDINE BASED CHALCONE ANALOGS AS THERAPEUTIC AGENTS AND USE THEREOF” (QATAR UNIVERSITY, priority 2023, published 2025).
Like-named read-outs stand apart in the source and are kept apart here.

Legend:
PC3 and DU145 [1] = assay: Wound healing assay, PC3 and DU145; settings: both cell lines; significant from 5 μM in PC3
DU145 [2] = assay: Cell cycle analysis (PI flow cytometry), DU145; assay type: cell-based, human; settings: DU145, 48 hours; not statistically significant (P>0.05)
Procedure: Cells were seeded in 100 mm Petri dishes at a density of 1.5 million cells/dish and incubated in RPMI supplemented with 10% FBS overnight at 37° C. Complete culture media was then removed, and cells were starved in serum serum-free for 16 hours to synchronize cells at the G0/G1 phase of the cell cycle. Subsequently, cells were treated with the compounds 13, 15, and 16 or docetaxel for 48 hours. After treatment, floating and adherent cells were collected, washed with ice-cold PBS and centrifuged at 500 g for 10 minutes at 4° C. Next, cells were fixed with ice-cold 70% ethanol added drop wisely while vertexing and stored at −20° C. for at least 24 hours. On the day of analysis, cells were pelleted (centrifuged at 800 g for 10 minutes at 4° C.), washed twice with ice-cold PBS and counted. Around one million cells of each sample were resuspended in 500 μl of FxCycle PI/RNase Staining Solution® (Thermo Fisher Scientific, USA) supplemented with 200 μg/ml RNase and incubated for 50 minutes at 37° C. in a shaking water bath, protected from light. Following incubation, cells were immediately analyzed by BD FACSAria™ II Flow Cytometer, at least 50,000 events were acquired for each sample. The proportion of cells in each cell cycle phase: […]

DU145 [3] = assay: Alamar Blue cell viability assay, DU145; settings: Homo sapiens, DU-145, 48 h, read-out: DU145 IC50
Bax, Bcl-2 = assay: Western blot of apoptosis-related proteins in PC3 and DU145; settings: PC3 and DU145, 48 hours of treatment
PC3 = assay: Alamar Blue cell viability assay, PC3; settings: for IC50: read-out: PC3 IC50, 48 hours, Mean ± SEM of three independent experiments
[4] = tested on: primary human dental bulb cells (ND); assay: Alamar Blue cell viability, normal primary dental cells; settings: 48 hours, Mean ± SEM
PC3 and DU145 [5] = assay: Alamar Blue cell viability, AR-negative PCa cell lines (stated for both); settings: Homo sapiens, DU-145, read-out: IC50 against PC3 and DU145 cell lines
PC3 and DU145 [6] = assay: Soft agar colony formation assay, PC3 and DU145 (stated for both); assay type: cell-based, human; settings: 5 and 10 μM, 14 days, both cell lines
Procedure: Anchorage-independent growth, a characteristic of transformed cells that correlate with in vivo tumorigenic potential, was assessed by soft agar assay. First, a 2% noble agar (Sigma-Aldrich) stock solution was prepared in deionized and autoclaved water. […] After 14 days, the average number of colonies in each well was counted manually under the microscope and confirmed by ImageJ; only colonies with an area larger than […] were counted to avoid the inclusion of non-proliferating dead cells. Besides, the size of colonies in each treatment condition was measured by ImageJ from at least six random fields per well.

C4-2 and LNCaP = assay: Morphological examination, AR-positive PCa cell lines; assay type: cell-based
Procedure: Cells were seeded in 6 wells plate at a density of 150,000-200,000 cells/well and were incubated overnight. […] Morphological changes were monitored using a DMi8 inverted microscope (Leica, Germany) and images were captured with a Leica MC170 HD camera.

JNK1/2/3, ERK1/2, Akt = assay: Western blot of JNK, ERK and AKT-related biomarkers in PC3; settings: PC3 cell line
MDA-231 and MDA-436 = assay: Morphological examination, TNBC cell lines; assay type: cell-based, human; settings: 24 and 48 hours post treatment
Procedure: Cells were seeded in 6 wells plate at a density of 150,000-200,000 cells/well and were incubated overnight. Then, cells were treated with the synthesized compounds at 5-10 μM concentration for 48 hours. Morphological changes were monitored using a DMi8 inverted microscope (Leica, Germany) and images were captured with a Leica MC170 HD camera.

MDA-MB-231 [7] = assay: Wound healing assay, MDA-MB-231; assay type: cell-based, human
MCF 10A [8] = assay: Alamar Blue cell viability, normal breast epithelial cell line
MDA-MB-436 = assay: Alamar Blue cell viability assay, MDA-MB-436; assay type: cell-based; settings: Homo sapiens, Mean ± SEM, read-out: IC50 against MDA-MB-436
Source text: (§1) Besides, the effect of these analogs was compared to docetaxel, a first-line chemotherapy, as a positive control.

MDA-MB-231 [9] = assay: Alamar Blue cell viability assay, MDA-MB-231; assay type: cell-based; settings: Homo sapiens, Mean ± SEM, read-out: IC50 against MDA-MB-231
Source text: as §1

[10] = tested on: MDA-MB-231 and MDA-MB-436; assay: Alamar Blue cell viability, TNBC cell lines (stated for both); assay type: cell-based; settings: Homo sapiens
Source text: as §1

[11] = tested on: MDA-MB-231 and MDA-MB-436; assay: Soft agar colony formation assay, TNBC cell lines; assay type: cell-based, human; settings: 28 days
MCF 10A [12] = settings: selectivity index
PC3 and DU145 [13] = assay: Cell cycle analysis (PI flow cytometry), PC3 and DU145; assay type: cell-based, human; settings: 48 hours
Procedure: The compounds' effect on cell cycle distribution of PC3 and DU145 was assessed by flow cytometry using propidium iodide (PI). Cells were seeded in 100 mm Petri dishes at a density of 1.5 million cells/dish and incubated in RPMI supplemented with 10% FBS overnight at 37° C. Complete culture media was then removed, and cells were starved in serum serum-free for 16 hours to synchronize cells at the G0/G1 phase of the cell cycle. Subsequently, cells were treated with the compounds 13, 15, and 16 or docetaxel for 48 hours. After treatment, floating and adherent cells were collected, washed with ice-cold PBS and centrifuged at 500 g for 10 minutes at 4° C. Next, cells were fixed with ice-cold 70% ethanol added drop wisely while vertexing and stored at −20° C. for at least 24 hours. On the day of analysis, cells were pelleted (centrifuged at 800 g for 10 minutes at 4° C.), washed twice with ice-cold PBS and counted. […] Following incubation, cells were immediately analyzed by BD FACSAria™ II Flow Cytometer, at least 50,000 events were acquired for each sample. The proportion of cells in each cell cycle phase: G1, S and G2-M was determined using FlowJo software based on cells' DNA content as represented by histograms of PI signal intensity.

[14] = range over both TNBC cell lines, read-out: IC50 against MDA-MB-231 and MDA-MB-436 cell lines

IC50 (MDA-MB-436; 24 hrs. post treatment)	IC50 (MDA-MB-436; 48 hrs. post treatment)	IC50 (MDA-MB-231 [9]; 24 hrs. post treatment)	IC50 (MDA-MB-231 [9]; 48 hrs. post treatment)	Structure (SMILES)	wound closure (PC3 and DU145 [1])	effect on cell cycle distribution (DU145 [2])	IC50 (DU145 [3])	Bax/Bcl-2 expression (Bax, Bcl-2)	IC50 (PC3)	ND LD50 [4]	IC50 (PC3 and DU145 [5])	effect on cell morphology (MDA-231 and MDA-436)	IC50 [10, 14]	colony formation in soft agar (number and size) [11]	further results
–	–	–	–	COc1cc2c(cc1OC)C(=O)/C(=C/c1ccc(-c3ccsc3)nc1)CC2 [Compound 13, (E)-6,7-dimethoxy-2-((6-(thiophen-3-yl)pyridin-3-yl)methylene)-3,4-dihydronaphthalen-1 (2H)-one]	dose-dependent reduction in wound closure	slight accumulation in G2/M and sub G1 phases	5.63 ± 1.07 µM	significant increase in Bax/Bcl-2 ratio	5.6 ± 0.38 µM	>50.0 µM	4.32 to 6.47 µM	–	–	–	colony formation in soft agar (number and size) (PC3 and DU145 [6]): significant reduction in both the total number of colonies and average colony size; effect on cell morphology (C4-2 and LNCaP): lose their shape, shrink in size, and increased cell death
–	–	–	–	COc1ccc2c(c1)C(=O)/C(=C/c1cccc(-c3ccsc3)n1)CC2 [Compound 15, (E)-7-methoxy-2-((6-(thiophen-3-yl)pyridin-2-yl)methylene)-3,4-dihydronaphthalen-1 (2H)-one]	dose-dependent reduction in wound closure	slight accumulation in G2/M and sub G1 phases	6.47 ± 0.57 µM	significant increase in Bax/Bcl-2 ratio	6.6 ± 0.49 µM	>50.0 µM	4.32 to 6.47 µM	–	–	–	expression of JNK1/2/3, ERK1/2, Akt and phosphorylated forms (JNK1/2/3, ERK1/2, Akt): reduced the expression of JNK1/2/3, p-ERK1/2, Akt and p-Akt
–	–	–	–	CS(=O)(=O)c1ccc(C(=O)/C=C/c2cccc(-c3ccsc3)n2)cc1 [Compound 23, (E)-1-(4-(methylsulfonyl)phenyl)-3-(6-(thiophen-3-yl)pyridin-2-yl) prop-2-en-1-one]	–	–	–	–	–	–	–	–	–	significant reduction in both the total number of colonies and average colony size	–
2.4 ± 0.2 µM	0.87 µM	3.5 ± 1.47 µM	2.1 µM	O=C(/C=C/c1cccc(-c2ccsc2)n1)c1ccccc1C(F)(F)F [Compound 25, (E)-3-(6-(thiophen-3-yl)pyridin-2-yl)-1-(2-(trifluoromethyl)phenyl) prop-2-en-1-one]	–	–	–	–	–	–	–	lose their shape, shrink in size, form apoptotic bodies, and increased cell death	0.87 to 3.2 µM	–	cell migration of MDA-MB-231 (wound healing) (MDA-MB-231 [7]; dose-dependent): significantly reduced cell migration; selectivity versus normal cells (MCF10a) (MCF 10A [8]; MDA-231 and MDA-436 vs MCF10a): greater selectivity towards cancerous cell lines; Effect on non-tumorigenic epithelial cell line MCF 10A (MCF 10A [8]; after 48 hrs.): 3.44 ± 0.4 µM; SI of MCF 10A/MDA-MB231 (MCF 10A [12]): 1.8; SI of MCF 10A/MDA-MB436 (MCF 10A [12]): 3.9; IC50 ([10]; range, unit inferred, read-out: IC50 (TNBC cell lines)): 0.87 to 2.1 µM
11.9 ± 2.7 µM	9.8 ± 2 µM	11 ± 1.7 µM	6.43 ± 0.6 µM	CC(=O)O[C@@]12CO[C@@H]1C[C@H](O)[C@@]1(C)C(=O)[C@H](O)C3=C(C)[C@@H](OC(=O)[C@H](O)[C@@H](NC(=O)OC(C)(C)C)c4ccccc4)C[C@@](O)([C@@H](OC(=O)c4ccccc4)[C@H]21)C3(C)C [docetaxel, reference compound]	–	–	–	–	–	–	–	–	–	–	increase of G2/M phase as compared to control (PC3 and DU145 [13]): 1.9-2.6 folds

Structure (SMILES)	IC50 (MDA-MB-436; 24 hrs. post treatment)	IC50 (MDA-MB-436; 48 hrs. post treatment)	IC50 (MDA-MB-231 [9]; 24 hrs. post treatment)	IC50 (MDA-MB-231 [9]; 48 hrs. post treatment)	wound closure (PC3 and DU145 [1])	effect on cell cycle distribution (DU145 [2])	IC50 (DU145 [3])	Bax/Bcl-2 expression (Bax, Bcl-2)	IC50 (PC3)	ND LD50 [4]	IC50 (PC3 and DU145 [5])	effect on cell morphology (MDA-231 and MDA-436)	IC50 [10, 14]	colony formation in soft agar (number and size) [11]	further results
COc1ccccc1C(=O)/C=C/c1cccc(-c2ccsc2)n1 [Compound 17, (E)-1-(2-methoxyphenyl)-3-(6-(thiophen-3-yl)pyridin-2-yl) prop-2-en-1-one]	3.2 ± 0.2 µM	1.6 µM	3.6 ± 0.5 µM	3.2 µM	–	–	–	–	–	–	–	lose their shape, shrink in size, form apoptotic bodies, and increased cell death	0.87 to 3.2 µM	significant reduction in both the total number of colonies and average colony size	cell migration of MDA-MB-231 (wound healing) (MDA-MB-231 [7]): significantly reduced cell migration; selectivity versus normal cells (MCF10a) (MCF 10A [8]): greater selectivity towards cancerous cell lines; reduction in cell viability of PC3 (PC3; 2.5 μM): 84.7%
